The subject of assay [1] is inflammatory pain. Kind of assay: Inflammatory pain models induced by formalin or CFA (summary statements). It is filed as in vivo, mouse. Here is the method:
(§1) Animals and pain models. Adult CD1 mice (male, 25-32 g) were used for most experiments. Knockout mice were used lacking TNFR1/II (Tnfrsf1a/1b^−/−) and TRPV1 (Trpv1^−/−) and C57BL/6 wild-type control mice, all from Jackson, for some experiments. All animal procedures performed in this study were approved by the Harvard Medical Area Standing Committee on Animals. 20 μl of diluted formalin (5%), carrageenan (CRG, 1%), or complete Freund's adjuvant (CFA) were injected into the plantar surface of a hindpaw to produce acute, persistent, or chronic inflammatory pain, respectively. Postoperative pain was also produced through hindpaw incision^36 and neuropathic pain by ligation of the spinal nerve^37.
(§2) Behavioral analysis. Mice were habituated in the testing environment for two days and performed behavioral testing in a blinded manner. Formalin-evoked spontaneous inflammatory pain was assessed by measuring duration (seconds) animals spent on licking/flinching the affected paws every 5 min for 45 min. Capsaicin-induced spontaneous pain was aslo assessed for 10 min. For testing mechanical sensitivity, mice were put in boxes on an elevated metal mesh floor and stimulated hindpaw with a series of von Frey hairs with logarithmically incrementing stiffness (0.02-2.56 grams, Stoelting), presented perpendicular to the plantar surface. It was determined the 50% paw withdrawal threshold using Dixon's up-down method^40. For testing heat sensitivity, mice were placed in plastic boxes and tested heat sensitivity using Hargreaves radiant heat apparatus (IITC Life Science Inc.). The basal paw withdrawal latency was adjusted to 9-12 seconds and set a cut-off of 20 seconds to prevent tissue damage. The percent maximal possible antinociceptive effect (% M.P.E) was calculated using the equation % M.P.E.=[(PL−BL2)/(BL1−BL2)]×100. BL1, baseline latency before inflammation; BL2, baseline latency after inflammation but before drug injection; PL, latency post drug injection.

Assay [2] relates to SNL-induced neuropathic pain. Kind of assay: Neuropathic pain model induced by spinal nerve ligation (SNL). Type of assay: in vivo, mice. The method, then: as §1, §2
Assay [3] concerns proinflammatory cytokines (TNF-α, IL-1β, IL-6) and chemokines (MCP-1, MIP-1α). Put plainly: Cytokine array of inflamed hindpaw skin after carrageenan. Type of assay: in vivo, mouse. The note with it: intraplantar RvE1 20 ng prior to CRG; 2 h after CRG. The method, then: The mouse cytokine array kits were purchased from R&D. Protein samples were prepared in the same way as for Western blotting analysis. Each reaction was performed according to manufacturer's protocol using 400 μg proteins. In brief, protein samples were incubated with a blot (array) that is pre-coated with 40 cytokines/chemokines for 24 h at 4° C. The remaining procedures were similar to that of Western blotting. Also see Gao et al., 2009^12.

In assay [4] the test system is intrathecal TNF-α-induced hypersensitivity. Put plainly: Intrathecal TNF-α-induced heat hyperalgesia and mechanical allodynia. It is filed as in vivo, mice. The method, then:
as §2, with “The percent maximal possible antinociceptive effect (% M.P.E) was calculated using the equation % M.P.E.=[(PL−BL2)/(BL1−BL2)]×100.” left out, “injection. Intrathecal injection: […] To examine whether pretreatment of RvE1 attenuates capsaicin-induced acute spontaneous pain, RvE1 and capsaicin were mixed and injected at the same time (FIG. 3f).” for “injection.”

Assay [5] relates to naïve mice. Kind of assay: Basal pain thresholds in naive mice. It is filed as in vivo. The note with it: intrathecal. Here is the method: as §2
The subject of assay [6] is CFA-induced mechanical allodynia. Kind of assay: CFA-induced mechanical allodynia (von Frey paw withdrawal threshold). It is filed as in vivo, mice. The note with it: intrathecal RvE1 3-100 ng, 3 d after CFA injection. The method, then:
as §1
Behavioral analysis. Mice were habituated in the testing environment for two days and performed behavioral testing in a blinded manner. Formalin-evoked spontaneous inflammatory pain was assessed by measuring duration (seconds) animals spent on licking/flinching the affected paws every 5 min for 45 min. Capsaicin-induced spontaneous pain was aslo assessed for 10 min. […] It was determined the 50% paw withdrawal threshold using Dixon's up-down method^40. […] The percent maximal possible antinociceptive effect (% M.P.E) was calculated using the equation % M.P.E.=[(PL−BL2)/(BL1−BL2)]×100. […]

Assay [7] has as its system phosphorylation of ERK (pERK). Kind of assay: ERK phosphorylation (pERK) in cultured DRG neurons. Type of assay: cell-based, mice. To be noted: dissociated DRG neurons; RvE1 10 ng/ml; TNF-α 10 ng/ml; capsaicin 500 nM. Here is the method: Primary DRG culture. DRGs were aseptically removed from 4-week old mice and digested them first with collagenase (1.25 mg/ml)/dispase-II (2.4 units/ml) at 37° C. for 90 min then with 0.25% trypsin for 8 min at 37° C. DRG cells were mechanically dissociated with a flame polished Pasteur pipette in the presence of 0.05% DNAse I and plated these cells onto poly-D-lysine and laminin-coated slide chambers. DRG cells were grown in a neurobasal defined medium (with 2% B27 supplement, Invitrogen) in the presence of NGF (50 ng/ml) for 24 h and replaced the medium with NGF-free medium before stimulation. For immunocytochemistry, DRG cells were fixed with 4% paraformaldehyde for 30 min and incubated the cells with pERK primary antibody (rabbit, Cell signaling, 1:500) overnight.
Resolvins were also used for intraplantar injection. RvD1 or RvE1 was injected into the plantar surface of a hindapaw [20 ng, 20 μl , in 1% ethanol (Supplementary FIG. 5a, 5b) or in 10% ethanol (FIG. 2e, Supplementary FIG. 1d)]. […]
pERK immunocytochemistry in DRG neurons: DRG cells grown in slide chambers were fixed with 4% paraformaldehyde for 30 min and incubated with pERK primary antibody (Rabbit, Cell Signaling, 1:500) at 4° C. overnight. The stained cells were examined with a Nikon fluorescence microscope, and images in 3 randomly-selected optic fields from each chamber were captured with a CCD Spot camera. […]

As to `CC[C@@H](O)/C=C/C=C\C[C@@H](O)/C=C/C=C/C=C\[C@@H](O)CCCC(=O)O` [RvE1, 5S,12R,18R-trihydroxyeicosapentaenoic acid], the pain-like behaviors entry in assay [1] was “potently inhibit”. Also, the SNL-induced heat hyperalgesia result in assay [2] (10 ng, i.t., one day after spinal nerve ligation) is listed as “reduces SNL-induced heat hyperalgesia”. The nerve injury-induced hyperalgesia result in assay [2] (neuropathic pain model induced by spinal nerve ligation) is recorded as “potently attenuate”. For the same molecule, the “expression of proinflammatory cytokines (TNF-α, IL-1β, IL-6) and chemokines (MCP-1, MIP-1α) in inflamed hindpaws” value in assay [3] is reported as “reducing”. Further, in assay [4] (intrathecal RvE1 pretreatment), the “mechanical allodynia induced by TNF-α” value is reported as “attenuated”. The TNF-α-induced heat hyperalgesia result in assay [4] (spinal (intrathecal) RvE1 mixed with TNF-α 20 ng) is recorded as “substantially reduced”. Besides, in assay [5], the baseline sensory thresholds entry is “did not alter baseline sensory thresholds”. Also, the CFA-induced mechanical allodynia entry in assay [6] is given as “reduces CFA-induced mechanical allodynia in a dose-dependent manner”. For the same molecule, the “TNF-α- and capsaicin-elicited increases in phosphorylation of ERK (pERK)” value in assay [7] is given as “abolished”.

(Values after patent US20120245229A1, “METHOD FOR TREATING NEUROPATHIC PAIN” (priority 2009, published 2012).)
